Test results as given in patent US20200354426A1 (MEDIMMUNE LIMITED, priority 2016, published 2020).
pEC50: −log10 of the molar value. Numbered stars: 1 amine (or outer) side, 2 acyl side, 3 side chain; on linkers, the order of the positions; unused ones are H or OH. Side chains are listed from the residue outwards. Ends that are not written are not given here. Peptide text beside a SMILES is read from it. * marks the point of attachment. γGlu = O=C(O)[C@H](CCC(=O)[*:2])N[*:1]; Palmitoyl = CCCCCCCCCCCCCCCC(=O)*; Ahx = NCCCCCC(=O)O; βAla = NCCC(=O)O

Experiments:
Test in all cases: cAMP activity assay in assay medium (assay 1)
Assay type in all cases: cell-based
Human GIPr = target: T1, Human GIPr (Homo sapiens, UniProt P48546); conditions: assay medium; Table 4; read-out: hGIPR EC50
T1 construct: expressed in transfected cells
T1 sequence (P48546 22-466): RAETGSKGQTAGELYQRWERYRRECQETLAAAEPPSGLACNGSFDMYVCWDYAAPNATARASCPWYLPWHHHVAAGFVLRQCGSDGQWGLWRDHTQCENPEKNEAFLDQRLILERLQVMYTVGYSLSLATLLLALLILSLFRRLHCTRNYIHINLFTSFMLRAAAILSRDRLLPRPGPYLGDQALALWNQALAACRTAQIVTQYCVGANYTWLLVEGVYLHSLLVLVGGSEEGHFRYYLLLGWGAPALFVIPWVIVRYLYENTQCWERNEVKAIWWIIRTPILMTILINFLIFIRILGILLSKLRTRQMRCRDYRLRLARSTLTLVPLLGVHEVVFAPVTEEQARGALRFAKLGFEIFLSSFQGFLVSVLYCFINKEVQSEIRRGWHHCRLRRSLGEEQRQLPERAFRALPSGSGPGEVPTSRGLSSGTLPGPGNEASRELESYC
Description: (§1) Biological Activity of Peptides in Cell-Based cAMP Activity Assay (Assay 1):
(§2) All sample dilutions were made in duplicate.

Human GlucR = target: T2, Human GlucR (Homo sapiens, UniProt P47871); conditions: assay medium; Table 4; read-out: hGlucR EC50
T2 construct: expressed in transfected cells
T2 sequence (P47871 26-477): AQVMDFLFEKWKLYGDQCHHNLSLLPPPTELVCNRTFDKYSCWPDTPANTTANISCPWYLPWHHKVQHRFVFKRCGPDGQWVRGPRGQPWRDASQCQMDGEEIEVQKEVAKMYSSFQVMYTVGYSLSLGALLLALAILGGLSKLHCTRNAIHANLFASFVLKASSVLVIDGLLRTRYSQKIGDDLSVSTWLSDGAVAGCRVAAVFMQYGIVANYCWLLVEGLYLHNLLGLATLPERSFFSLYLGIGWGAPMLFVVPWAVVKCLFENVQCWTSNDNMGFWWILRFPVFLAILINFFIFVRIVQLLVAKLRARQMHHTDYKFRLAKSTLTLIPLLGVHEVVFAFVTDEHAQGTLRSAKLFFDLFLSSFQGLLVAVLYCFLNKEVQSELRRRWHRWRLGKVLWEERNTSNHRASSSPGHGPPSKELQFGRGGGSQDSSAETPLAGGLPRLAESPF
Description: as §1, §2

Human GLP1R = Human GLP1R (Homo sapiens, UniProt P43220); set-up: expressed in transfected cells; conditions: assay medium; Table 4; read-out: hGLP1R EC50
Chain of Human GLP1R (P43220 24-463): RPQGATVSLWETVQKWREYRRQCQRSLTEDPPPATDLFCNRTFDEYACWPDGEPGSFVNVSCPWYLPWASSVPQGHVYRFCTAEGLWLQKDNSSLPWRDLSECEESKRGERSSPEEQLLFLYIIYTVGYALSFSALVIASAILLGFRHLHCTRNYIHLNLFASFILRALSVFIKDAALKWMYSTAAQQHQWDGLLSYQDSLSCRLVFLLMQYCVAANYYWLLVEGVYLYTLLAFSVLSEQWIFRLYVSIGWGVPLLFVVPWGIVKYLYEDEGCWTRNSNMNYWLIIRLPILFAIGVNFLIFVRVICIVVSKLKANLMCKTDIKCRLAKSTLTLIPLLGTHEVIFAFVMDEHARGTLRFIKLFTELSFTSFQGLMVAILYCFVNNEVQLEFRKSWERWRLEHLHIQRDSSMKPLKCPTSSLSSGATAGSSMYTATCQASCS
Description: as §1, §2

| pEC50 (Human GIPr) | pEC50 (Human GlucR) | pEC50 (Human GLP1R) | Compound |
| --- | --- | --- | --- |
| 5.83 | 7.22 | 10.60 | CCCCCCCCCCCCCCCC(=O)NCCCCCC(=O)NCCCC[C@H](NC(=O)[C@H](CO)NC(=O)[C@H](CC(=O)O)NC(=O)[C@H](CC(C)C)NC(=O)[C@H](Cc1ccc(O)cc1)NC(=O)[C@H](CCC(=O)O)NC(=O)[C@H](CO)NC(=O)[C@H](Cc1ccc(O)cc1)NC(=O)[C@H](CC(=O)O)NC(=O)[C@H](CO)NC(=O)[C@@H](NC(=O)[C@H](Cc1ccccc1)NC(=O)[C@@H](NC(=O)CNC(=O)[C@H](CCC(=O)O)NC(=O)CNC(=O)[C@@H](N)Cc1c[nH]cn1)[C@@H](C)O)[C@@H](C)O)C(=O)N[C@@H](CCCNC(=N)N)C(=O)N[C@@H](C)C(=O)N[C@@H](C)C(=O)N[C@@H](CC(=O)O)C(=O)N[C@@H](Cc1ccccc1)C(=O)N[C@H](C(=O)N[C@@H](C)C(=O)N[C@@H](Cc1c[nH]c2ccccc12)C(=O)N[C@@H](CC(C)C)C(=O)N[C@@H](CCC(=O)O)C(=O)N[C@@H](CCCNC(=N)N)C(=O)NCC(=O)NCC(N)=O)C(C)C [g725] (H-HGEGTFTSDYSEYLDSK([Ahx-Palmitoyl])RAADFVAWLERGG-NH2; N-terminus assumed) |
| 6.99 | 11.63 | 10.74 | CCCCCCCCCCCCCCCC(=O)NCCC(=O)NCCCC[C@H](NC(=O)[C@H](CO)NC(=O)[C@H](CC(=O)O)NC(=O)[C@H](CC(C)C)NC(=O)[C@H](Cc1ccc(O)cc1)NC(=O)[C@H](CCCCN)NC(=O)[C@H](CO)NC(=O)[C@H](Cc1ccc(O)cc1)NC(=O)[C@H](CC(=O)O)NC(=O)[C@H](CO)NC(=O)[C@@H](NC(=O)[C@H](Cc1ccccc1)NC(=O)[C@@H](NC(=O)CNC(=O)[C@H](CCC(N)=O)NC(=O)[C@H](CO)NC(=O)[C@@H](N)Cc1c[nH]cn1)[C@@H](C)O)[C@@H](C)O)C(=O)N[C@@H](CCCNC(=N)N)C(=O)N[C@@H](C)C(=O)N[C@@H](CCCNC(=N)N)C(=O)N[C@@H](CC(=O)O)C(=O)N[C@@H](Cc1ccccc1)C(=O)N[C@H](C(=O)N[C@@H](C)C(=O)N[C@@H](Cc1c[nH]c2ccccc12)C(=O)N[C@@H](CC(C)C)C(=O)N[C@@H](CCC(=O)O)C(=O)N[C@@H](C)C(=O)NCC(=O)NCC(N)=O)C(C)C [g819] (H-HSQGTFTSDYSKYLDSK([βAla-Palmitoyl])RARDFVAWLEAGG-NH2; N-terminus assumed) |
| 6.07 | 10.04 | 10.37 | CCCCCCCCCCCCCCCC(=O)NCCC(=O)NCCCC[C@H](NC(=O)[C@H](CO)NC(=O)[C@H](CC(=O)O)NC(=O)[C@H](CC(C)C)NC(=O)[C@H](Cc1ccc(O)cc1)NC(=O)[C@H](CCC(=O)O)NC(=O)[C@H](CO)NC(=O)[C@H](Cc1ccc(O)cc1)NC(=O)[C@H](CC(=O)O)NC(=O)[C@H](CO)NC(=O)[C@@H](NC(=O)[C@H](Cc1ccccc1)NC(=O)[C@@H](NC(=O)CNC(=O)[C@H](CCC(N)=O)NC(=O)[C@H](CO)NC(=O)[C@@H](N)Cc1c[nH]cn1)[C@@H](C)O)[C@@H](C)O)C(=O)N[C@@H](CCCNC(=N)N)C(=O)N[C@@H](C)C(=O)N[C@@H](CCCNC(=N)N)C(=O)N[C@@H](CC(=O)O)C(=O)N[C@@H](Cc1ccccc1)C(=O)N[C@H](C(=O)N[C@@H](C)C(=O)N[C@@H](Cc1c[nH]c2ccccc12)C(=O)N[C@@H](CC(C)C)C(=O)N[C@@H](CCC(=O)O)C(=O)N[C@@H](C)C(=O)NCC(=O)NCC(N)=O)C(C)C [g783] (H-HSQGTFTSDYSEYLDSK([βAla-Palmitoyl])RARDFVAWLEAGG-NH2; N-terminus assumed) |
| 6.99 | 11.28 | 9.84 | HSQGTFTSDYSKYLDSERARDFVAWLEAGG-NH2 [g840] |
| 7.07 | 11.02 | 10.01 | CCCCCCCCCCCCCCCC(=O)N[C@@H](CCC(=O)NCCCC[C@H](NC(=O)[C@H](CO)NC(=O)[C@H](CC(=O)O)NC(=O)[C@H](CC(C)C)NC(=O)[C@H](Cc1ccc(O)cc1)NC(=O)[C@H](CCCNC(=N)N)NC(=O)[C@H](CO)NC(=O)[C@H](Cc1ccc(O)cc1)NC(=O)[C@H](CC(=O)O)NC(=O)[C@H](CO)NC(=O)[C@@H](NC(=O)[C@H](Cc1ccccc1)NC(=O)[C@@H](NC(=O)CNC(=O)[C@H](CCC(N)=O)NC(=O)[C@H](CO)NC(=O)[C@@H](N)Cc1c[nH]cn1)[C@@H](C)O)[C@@H](C)O)C(=O)N[C@@H](CCCNC(=N)N)C(=O)N[C@@H](C)C(=O)N[C@@H](CCCNC(=N)N)C(=O)N[C@@H](CC(=O)O)C(=O)N[C@@H](Cc1ccccc1)C(=O)N[C@H](C(=O)N[C@@H](CCC(=O)O)C(=O)N[C@@H](Cc1c[nH]c2ccccc12)C(=O)N[C@@H](CC(C)C)C(=O)N[C@H](C(=O)N[C@@H](C)C(=O)NCC(=O)NCC(N)=O)C(C)C)C(C)C)C(=O)O [g823] (H-HSQGTFTSDYSRYLDSK([γGlu-Palmitoyl])RARDFVEWLVAGG-NH2; N-terminus assumed) |
| 8.76 | 11.45 | 10.97 | CCCCCCCCCCCCCCCC(=O)NCCCC[C@H](NC(=O)[C@H](C)NC(=O)[C@@H](NC(=O)[C@H](CC(N)=O)NC(=O)[C@H](CC(N)=O)NC(=O)[C@H](CCCNC(=N)N)NC(=O)[C@H](CC(N)=O)NC(=O)[C@H](CC(N)=O)NC(=O)[C@H](CCCCN)NC(=O)CNC(=O)CNC(=O)[C@H](CCCNC(=N)N)NC(=O)[C@@H](NC(=O)[C@H](CC(C)C)NC(=O)[C@H](Cc1c[nH]c2ccccc12)NC(=O)[C@H](CCC(N)=O)NC(=O)[C@@H](NC(=O)[C@H](Cc1ccccc1)NC(=O)[C@H](CC(=O)O)NC(=O)[C@H](CCC(N)=O)NC(=O)[C@H](C)NC(=O)[C@H](CCCNC(=N)N)NC(=O)[C@H](CCCNC(=N)N)NC(=O)[C@H](CO)NC(=O)[C@H](CC(=O)O)NC(=O)[C@H](CC(C)C)NC(=O)[C@H](Cc1ccc(O)cc1)NC(=O)[C@H](CCCCN)NC(=O)[C@H](CO)NC(=O)[C@H](Cc1ccc(O)cc1)NC(=O)[C@H](CC(=O)O)NC(=O)[C@H](CO)NC(=O)[C@@H](NC(=O)[C@H](Cc1ccccc1)NC(=O)[C@@H](NC(=O)CNC(=O)[C@H](CCC(N)=O)NC(=O)[C@H](CO)NC(=O)[C@@H](N)Cc1c[nH]cn1)[C@@H](C)O)[C@@H](C)O)C(C)C)C(C)C)[C@@H](C)CC)C(N)=O [g322] (H-HSQGTFTSDYSKYLDSRRAQDFVQWLVRGGKNNRNNIAK(Palmitoyl)-NH2; N-terminus assumed) |
| 7.00 | 11.44 | 11.03 | CCCCCCCCCCCCCCCC(=O)NCCCCCC(=O)NCCCC[C@H](NC(=O)[C@H](CO)NC(=O)[C@H](CC(=O)O)NC(=O)[C@H](CC(C)C)NC(=O)[C@H](Cc1ccc(O)cc1)NC(=O)[C@H](CCC(=O)O)NC(=O)[C@H](CO)NC(=O)[C@H](Cc1ccc(O)cc1)NC(=O)[C@H](CC(=O)O)NC(=O)[C@H](CO)NC(=O)[C@@H](NC(=O)[C@H](Cc1ccccc1)NC(=O)[C@@H](NC(=O)CNC(=O)[C@H](CCC(N)=O)NC(=O)[C@H](CO)NC(=O)[C@@H](N)Cc1c[nH]cn1)[C@@H](C)O)[C@@H](C)O)C(=O)N[C@@H](CCCNC(=N)N)C(=O)N[C@@H](C)C(=O)N[C@@H](CCC(N)=O)C(=O)N[C@@H](CC(=O)O)C(=O)N[C@@H](Cc1ccccc1)C(=O)N[C@H](C(=O)N[C@@H](CCC(N)=O)C(=O)N[C@@H](Cc1c[nH]c2ccccc12)C(=O)N[C@@H](CC(C)C)C(=O)N[C@@H](CCC(=O)O)C(=O)N[C@@H](CCCNC(=N)N)C(=O)NCC(=O)NCC(N)=O)C(C)C [g614] (H-HSQGTFTSDYSEYLDSK([Ahx-Palmitoyl])RAQDFVQWLERGG-NH2; N-terminus assumed) |
| 7.01 | 9.37 | 9.72 | CCCCCCCCCCCCCCCC(=O)N[C@@H](CCC(=O)NCCCC[C@H](NC(=O)[C@H](CO)NC(=O)[C@H](CC(=O)O)NC(=O)[C@H](CC(C)C)NC(=O)[C@H](Cc1ccc(O)cc1)NC(=O)[C@H](CCC(=O)O)NC(=O)[C@H](CO)NC(=O)[C@H](Cc1ccc(O)cc1)NC(=O)[C@H](CC(=O)O)NC(=O)[C@H](CO)NC(=O)[C@@H](NC(=O)[C@H](Cc1ccccc1)NC(=O)[C@@H](NC(=O)CNC(=O)[C@H](CCC(N)=O)NC(=O)[C@H](CO)NC(=O)[C@@H](N)Cc1c[nH]cn1)[C@@H](C)O)[C@@H](C)O)C(=O)N[C@@H](CCCNC(=N)N)C(=O)N[C@@H](C)C(=O)N[C@@H](CCCNC(=N)N)C(=O)N[C@@H](CC(=O)O)C(=O)N[C@@H](Cc1ccccc1)C(=O)N[C@H](C(=O)N[C@@H](CCC(=O)O)C(=O)N[C@@H](Cc1c[nH]c2ccccc12)C(=O)N[C@@H](CC(C)C)C(=O)N[C@H](C(=O)N[C@@H](C)C(=O)NCC(=O)NCC(N)=O)C(C)C)C(C)C)C(=O)O [g835] (H-HSQGTFTSDYSEYLDSK([γGlu-Palmitoyl])RARDFVEWLVAGG-NH2; N-terminus assumed) |
